The values that follow are results of earlier work, collected in patent US20200253960A1, “ANTIBIOTIC FORMULATIONS FOR TREATING OF CAVITY INFECTIONS” (ARADIGM CORPORATION, priority 2019, published 2020).

This data set relates to Pseudomonas aeruginosa. To be noted: cystic fibrosis.

With `CC[C@H]1OC(=O)[C@H](C)[C@@H](O[C@H]2C[C@@](C)(OC)[C@@H](O)[C@H](C)O2)[C@H](C)[C@@H](O[C@@H]2O[C@H](C)C[C@H](N(C)C)[C@H]2O)[C@](C)(O)C[C@@H](C)CN(C)[C@H](C)[C@@H](O)[C@]1(C)O` [azithromycin], the “interaction with inhaled tobramycin” value was “antagonistic against inhaled tobramycin”.
